Read-outs that look alike come from different tables or passages of the source. Starred links: 1 amine or outer side, 2 acyl side, 3 side chain; linkers in the order of their positions; H or OH if unused. Positions of bridges follow the written chain, without caps; N, C: chain ends. Non-standard residues stand in square brackets, D forms with d. Residues, ends and D or L forms follow the SMILES beside them. X1 = O=C([C@@H]1CCC[C@@H]1N[*:1])[*:2]
Experiments:
purified αvβ3 receptor [1] = target: T1, purified αvβ3 receptor (Homo sapiens, UniProt P05106+P06756); assay: Competitive binding assay to purified αvβ3 receptor (displacement of biotinylated vitronectin); conditions: for IC50: immobilized integrin αvβ3, biotinylated vitronectin 1 μg mL−1, mean ± SD of duplicate determinations; for selectivity ratio (IC50α5β1/IC50αvβ3): ratio of competitive binding IC50 values, α5β1 over αvβ3
Procedure: (§1) The cyclic peptidomimetics 8–10 were analyzed in a first instance for their competitive binding to purified αvβ3 and α5β1 receptors with respect to the biotinylated vitronectin or fibronectin, respectively. The IC50 values are collected in Table 1, where the values of Cilengitide (1a), cyclo-[RGDfV] (1b), cyclo-[DKP-RGD] (4), and cyclo-[DKP-isoDGR] (7), measured using the same procedure, are included as reference compounds for the RGD and isoDGR series. The new RGD compounds cyclo-[-Arg-Gly-Asp-(1S,2R)-β-ACPC-Val-] (8) and cyclo-[-Arg-Gly-Asp-(1R,2S)-β-ACPC-Val-] […] (10) is a micromolar binder for both integrins, much weaker than cyclo-[DKP-isoDGR] (7) in the case of αvβ3.
(§2) The inhibition assays of biotinylated vitronectin and fibronectin binding to the αvβ3 and α5β1 receptors, for compounds 8–10 were carried out as previously reported. […] Screening assays were performed by incubating the immobilized integrin αvβ3 or α5β1 with increasing concentrations (10^−12–10^−5 M/10^−11–10^−4 M) of the RGD and isoDGR ligands in the presence of the corresponding biotinylated ECM protein (1 μg mL^−1), and measuring bound protein in the presence of the competitive ligand. Each data point is the result of the average of triplicate wells and was analyzed by nonlinear regression analysis with the GraphPad Prism software. Each experiment was repeated in duplicate. IC50 values are the arithmetic mean ± the standard deviation (SD) of these duplicate determinations.

purified α5β1 receptor [2] = target: T2, purified α5β1 receptor (Homo sapiens, UniProt P05556+P08648); assay: Competitive binding assay to purified α5β1 receptor (displacement of biotinylated fibronectin); conditions: immobilized integrin α5β1, biotinylated fibronectin 1 μg mL−1; mean ± SD of duplicate determinations
Procedure: as §1, §2

WM115 cells = WM115 cells (Homo sapiens, UniProt P05106+P06756); assay type: cell-based
Procedure: WM-115 cells were washed with MEM (Minimum Essential Medium)-buffer, detached with trypsin and resuspended to a cell density of 1 × 10^5 cells/mL. WM-115 cells were then incubated with fluorescein diacetate for 30 min at 37 °C in the dark, washed with MEM medium and resuspended with MEM medium containing CaCl2 and MgCl2 (2 mM) and incubated on ice for 30 min in the dark. […] 0.00195313, 0.00097565, 0.00048828, 0.00024414). Cells and peptide were incubated for 30 min at 37° C in the dark and afterwards added to the 96-well ELISA-plates previously coated with vitronectin and incubated for 1 h at 37 °C in the dark. Unbound cells were aspirated, and bound cells were washed three times with MEM medium and fluorescence measured (λex: 485 nm, λem: 514 nm) with an InfiniteTM 200 Microplate Reader (Tecan, Männedorf, Switzerland). […] The IC50 values were determined four times per peptide in two independent assays here reported, and the final values are the arithmetic mean ± the standard deviation (SD) of the two independent assays. The reference peptide […] was tested together with the peptides.

purified αvβ3 receptor [3] = target: T1, purified αvβ3 receptor; set-up: method as in PMID 23424096, PMID 28934103, PMID 28168158, PMID 31275795; conditions: reference compounds, measured using the same procedure; biotinylated vitronectin; mean ± SD; ref [29],[48],[49],[50]; cited from earlier work
purified α5β1 receptor [4] = target: T2, purified α5β1 receptor; set-up: method as in PMID 23424096, PMID 28934103, PMID 28168158, PMID 31275795; conditions: reference compounds, measured using the same procedure; biotinylated fibronectin; mean ± SD; ref [29],[48],[49],[50]; cited from earlier work
[5] = read-out: IC50 cell adhesion, 1° Assay, WM-115 cells, vitronectin-coated plates, first independent assay (Figure S4)
[6] = read-out: IC50 cell adhesion, 2° Assay, WM-115 cells, vitronectin-coated plates, second independent assay (Figure S5)
[7] = read-out: IC50 (50% inhibition of cell adhesion to vitronectin), WM115 cells, fluorescein labeled, mean ± SD of two independent assays

Compound | IC50 (purified αvβ3 receptor [1]) | IC50 (purified α5β1 receptor [2]) | IC50 (50% inhibition of cell adhesion to vitronectin) (WM115 cells; WM115 cells, fluorescein labeled, mean ± SD of two independent assays) | IC50 (WM115 cells; [5]) | IC50 (WM115 cells; [6]) | IC50 (purified αvβ3 receptor [3]) | IC50 (purified α5β1 receptor [4]) | selectivity ratio (IC50α5β1/IC50αvβ3) (purified αvβ3 receptor [1]) | IC50 (WM115 cells; [7])
CC(C)[C@@H]1NC(=O)[C@@H]2CCC[C@@H]2NC(=O)[C@H](CCCNC(=N)N)NC(=O)CNC(=O)C[C@@H](C(=O)O)NC1=O [Compound 10, cyclo-[-isoAsp-Gly-Arg-(1R,2S)-β-ACPC-Val-]] (GR[X1]VD-OH; lactam N-5) | 5.36 ± 0.281 µM | 2.33 ± 0.134 µM | could not be measured | > 300 µM | > 300 µM | – | – | – | –
cyclo-(-DKP-isoAsp-Gly-Arg-) [Compound 7] | – | – | – | – | – | 0.0092 ± 0.0011 µM | 1.07 ± 0.228 µM | – | –
cyclo[Arg-Gly-Asp-NMe Val-D-Phe] [Compound 1a] | – | – | – | – | – | 0.00071 ± 6e-05 µM | – | – | –
CC(C)[C@@H]1NC(=O)[C@@H]2CCC[C@@H]2NC(=O)[C@H](CC(=O)O)NC(=O)CNC(=O)[C@H](CCCNC(=N)N)NC1=O [Compound 9, cyclo-[-Arg-Gly-Asp-(1R,2S)-β-ACPC-Val-]] | 0.039 ± 0.0011 µM | 0.468 ± 0.114 µM | – | 117 µM | 132 µM | – | – | about 12 | 124 µM
cyclo-[-DKP-Arg-Gly-Asp-] [Compound 4] | – | – | – | – | – | 0.0045 ± 0.0011 µM | 0.532 ± 0.035 µM | – | –
CC(C)[C@@H]1NC(=O)[C@H]2CCC[C@H]2NC(=O)[C@H](CC(=O)O)NC(=O)CNC(=O)[C@H](CCCNC(=N)N)NC1=O [Compound 8, cyclo-[-Arg-Gly-Asp-(1S,2R)-β-ACPC-Val-]] | 0.0443 ± 0.004 µM | 3.23 ± 1.47 µM | – | 52 µM | 98 µM | – | – | ~73 | 75 ± 32.5 µM
